Source: patent US4764528A, “2,4-pentadienoic acid derivatives and platelet aggregation inhibitors containing the same” (Teruo Kabushiki Kaisha, priority 1986, dated 1988)
Like-named read-outs stand apart in the source and are kept apart here.

Key:
platelet aggregation = test: Inhibition of platelet aggregation in rabbit platelet-rich plasma (Born's turbimetry); type: cell-based; details: Oryctolagus cuniculus
Method: Using a syringe containing 3.8% sodium citrate solution (1 volume), 9 volumes of blood is drawn from the carotid artery of a rabbit. Said blood is centrifuged to give platelet-rich plasma (PRP: 7×10^5 /μl).
In a cuvette is placed 250 ul of said PRP, followed by incubation in a thermostat at 37° C. for 2 min. Then, 20 μl of physiological saline buffer solution of a 2,4-pentadienoic acid derivative to be tested is added, and the mixture is incubated for 3 min. A platelet-aggregation inducer, an arachidonic acid solution, a collagen solution or an ADP solution is then added, and platelet aggregation is measured by the Born's turbimetry (which is described, for example, in Journal of Physiology, vol. 168, p. 178 (1968)). 50% Inhibitory concentration of the platelet aggregation caused by arachidonic acid (60 μmol), collagen (10 μg/ml) or ADP (5 μmol) is shown in Table 5 in comparison with prostaglandin I2, aspirin or dipyridamol.
50% Inhibitory concentration as indicated in Table 5 means the concentration of a 2,4-pentadienoic acid derivative needed for inhibiting the platelet aggregation by 50% by the introduction of said 2,4-pentadienoic acid derivative, taking the platelet aggregation in the absence of 2,4-pentadienoic acid derivatives of the invention as 100%.

[1] = unstable vinylether group in the molecule; cited from earlier work
[2] = aggregation induced by ADP (5 μmol), rabbit PRP, 37° C., 3 min preincubation, read-out: Antiplatelet activity, 50% Inhibitory concentration, ADP
[3] = aggregation induced by arachidonic acid (60 μmol), rabbit PRP, 37° C., 3 min preincubation, read-out: Antiplatelet activity, 50% Inhibitory concentration, Arachidonic acid
[4] = aggregation induced by collagen (10 μg/ml), rabbit PRP, 37° C., 3 min preincubation, read-out: Antiplatelet activity, 50% Inhibitory concentration, Collagen

Structure (SMILES)	IC50 (platelet aggregation; [2]) [µM]	IC50 (platelet aggregation; [3]) [µM]	IC50 (platelet aggregation; [4]) [µM]	IC50 (platelet aggregation; read-out: Antiplatelet activity, 50% Inhibitory concentration, ADP) [µM]	IC50 (platelet aggregation; read-out: Antiplatelet activity, 50% Inhibitory concentration, Arachidonic acid) [µM]	IC50 (platelet aggregation; read-out: Antiplatelet activity, 50% Inhibitory concentration, Collagen) [µM]	half life in the living body [1]
CC(=O)Oc1ccccc1C(=O)O [aspirin, reference compound]				≥ 1000	17	200	
O=C(O)/C=C/C=C/CC1=C[C@H]2C[C@@H](O)[C@H](/C=C/[C@@H](O)C3CCCC3)[C@H]2C1 [Example 9]	1.4	1.8	1.1				
CCCCC[C@H](O)/C=C/[C@@H]1[C@H]2CC(C/C=C/C=C/C(=O)O)=C[C@H]2C[C@H]1O [Example 6, 3-(5-carboxy-trans, trans-2,4-pentadienyl)-6-exo-(3α-hydroxy-trans-1-octenyl)-7-endo-hydroxybicyclo[3.3.0]oct-2-ene]	0.7	0.82	0.5				
OCCN(CCO)c1nc(N2CCCCC2)c2nc(N(CCO)CCO)nc(N3CCCCC3)c2n1 [dipyridamol, reference compound]	470	≥ 1000					

More lines, in order of falling IC50 (platelet aggregation; [2]), values ahead:

IC50 (platelet aggregation; [2]) [µM]	IC50 (platelet aggregation; [3]) [µM]	IC50 (platelet aggregation; [4]) [µM]	Structure (SMILES)	IC50 (platelet aggregation; read-out: Antiplatelet activity, 50% Inhibitory concentration, ADP) [µM]	IC50 (platelet aggregation; read-out: Antiplatelet activity, 50% Inhibitory concentration, Arachidonic acid) [µM]	IC50 (platelet aggregation; read-out: Antiplatelet activity, 50% Inhibitory concentration, Collagen) [µM]	half life in the living body [1]
0.52	0.47	0.32	CCCCC[C@H](O)/C=C/[C@@H]1[C@H]2CC(/C=C/C=C/C(=O)O)=C[C@H]2C[C@H]1O [Example 1, 3-(4-carboxy-trans, trans-1,3-butadienyl)-6-exo-(3α-hydroxy-trans-1-octenyl)-7-endo-hydroxybicyclo[3.3.0]oct-2-ene]				
0.39	0.29	0.23	O=C(O)/C=C/C=C/C1=C[C@H]2C[C@@H](O)[C@H](/C=C/[C@@H](O)C3CCCC3)[C@H]2C1 [Example 4]				
0.38	0.25	0.22	CCCCC[C@H](O)/C=C/[C@@H]1[C@H]2C/C(=C/CCCC(=O)O)O[C@H]2C[C@H]1O [prostaglandin I2, reference compound]				short
